From ChEMBL document CHEMBL1165847, “Urotensin-II receptor modulators as potential drugs” (J Med Chem, 2010)
Structures can show the parent of a compound that is named as a salt. Calls of active or inactive are those of the source. The calls are words filed in the database; no cut-off is given here. Where a SMILES comes first, the peptide text is derived from it. Bridges are numbered along the chain shown (N, C = ends).

Experiments:
[1] = target: T1, Urotensin-2 receptor (Rattus norvegicus) (UniProt P49684); assay: Antagonist activity at rat urotensin 2 receptor expressed in CHO cells assessed as calcium mobilization at 100 nM by FLIPR; format: functional, cell-based
T1 sequence (whole entry): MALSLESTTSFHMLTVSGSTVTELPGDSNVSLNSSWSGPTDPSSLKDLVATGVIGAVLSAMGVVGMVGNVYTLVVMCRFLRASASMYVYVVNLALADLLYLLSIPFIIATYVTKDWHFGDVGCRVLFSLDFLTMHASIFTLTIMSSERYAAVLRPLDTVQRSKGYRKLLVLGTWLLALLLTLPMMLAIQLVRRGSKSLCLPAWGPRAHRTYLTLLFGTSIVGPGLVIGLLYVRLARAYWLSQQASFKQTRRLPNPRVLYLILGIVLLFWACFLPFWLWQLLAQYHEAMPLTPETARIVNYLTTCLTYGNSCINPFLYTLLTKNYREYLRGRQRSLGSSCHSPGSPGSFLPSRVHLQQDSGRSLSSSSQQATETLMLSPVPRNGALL

[2] = Oral bioavailability in rat; format: ADME, organism-based; conditions: in vivo
Rattus norvegicus [3] = assay: Decrease in urotensin-2-induced temperature of ear pinna in rat ear-flush model at 10 ug/ml, iv for 15 mins; format: functional, organism-based
Urotensin-2 receptor [4] = target: T2, Urotensin-2 receptor (Rattus norvegicus, UniProt P49684); assay: (§1) Agonist activity at rat urotensin 2 receptor expressed in CHO cells assessed as calcium mobilization at 1000 nM by FLIPR; format: functional, cell-based
T2 sequence (P49684 whole entry): T1 sequence (whole entry)

Urotensin-2 receptor [5] = target: T3, Urotensin-2 receptor (Homo sapiens, UniProt Q9UKP6); assay: Binding affinity to human urotensin 2 receptor
T3 sequence (Q9UKP6 whole entry): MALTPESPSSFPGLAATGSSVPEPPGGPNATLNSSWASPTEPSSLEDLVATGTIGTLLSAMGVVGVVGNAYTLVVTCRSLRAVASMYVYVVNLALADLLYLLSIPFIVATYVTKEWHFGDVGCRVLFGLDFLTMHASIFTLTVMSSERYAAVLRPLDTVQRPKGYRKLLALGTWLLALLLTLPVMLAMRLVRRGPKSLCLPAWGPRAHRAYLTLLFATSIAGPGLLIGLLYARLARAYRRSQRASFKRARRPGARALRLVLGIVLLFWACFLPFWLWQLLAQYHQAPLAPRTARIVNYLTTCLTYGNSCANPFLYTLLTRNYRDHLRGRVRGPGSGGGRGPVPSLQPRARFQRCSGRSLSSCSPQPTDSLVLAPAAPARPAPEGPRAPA

Urotensin-2 receptor [6] = target: T3, Urotensin-2 receptor; assay: Agonist activity at human urotensin 2 expressed in CHO cells by FLIPR; format: functional, cell-based
Urotensin-2 receptor [7] = target: T2, Urotensin-2 receptor; assay: Displacement of [125I]U2 from rat urotensin 2 receptor expressed in CHO cells; format: cell-based
Urotensin-2 receptor [8] = target: T2, Urotensin-2 receptor; assay: Agonist activity at rat urotensin 2 receptor expressed in CHO cells assessed as calcium mobilization by FLIPR; format: functional, cell-based
Aorta [9] = assay: Vasoconstriction activity in spontaneously […] rat thoracic aorta at 30 nM; format: functional
[10] = target: T1, Urotensin-2 receptor (Rattus norvegicus); assay: as §1; format: functional, cell-based
[11] = target: T1, Urotensin-2 receptor (Rattus norvegicus); assay: Agonist activity at rat urotensin 2 receptor expressed in CHO cells assessed as calcium mobilization at 500 nM by FLIPR; format: functional, cell-based
[12] = target: T1, Urotensin-2 receptor (Rattus norvegicus); assay: Antagonist activity at rat urotensin 2 receptor expressed in CHO cells assessed as calcium mobilization at 300 nM by FLIPR; format: functional, cell-based
[13] = target: T1, Urotensin-2 receptor (Rattus norvegicus); assay: Antagonist activity at rat urotensin 2 receptor expressed in CHO cells assessed as calcium mobilization at 10000 nM by FLIPR; format: functional, cell-based
Urotensin II receptor = target: T4, Urotensin II receptor (Felis catus, UniProt Q533H1); assay: Binding affinity to cat urotensin 2 receptor
T4 sequence (Q533H1 whole entry): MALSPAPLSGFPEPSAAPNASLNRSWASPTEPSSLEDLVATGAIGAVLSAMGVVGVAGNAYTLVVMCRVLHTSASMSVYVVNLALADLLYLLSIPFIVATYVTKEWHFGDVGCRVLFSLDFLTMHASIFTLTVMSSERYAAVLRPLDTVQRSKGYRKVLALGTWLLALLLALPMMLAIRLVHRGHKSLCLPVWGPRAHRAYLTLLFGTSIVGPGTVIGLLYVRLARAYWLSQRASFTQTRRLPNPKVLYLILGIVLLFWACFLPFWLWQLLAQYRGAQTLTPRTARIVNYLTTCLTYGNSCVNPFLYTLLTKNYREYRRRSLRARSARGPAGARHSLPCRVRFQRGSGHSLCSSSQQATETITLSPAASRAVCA

Rattus norvegicus [14] = assay: Plasma concentration in rat at 10 mg/kg, iv; format: ADME, organism-based; design: dose 10 mg/kg, route intravenous; conditions: in vivo
Urotensin-2 receptor [15] = target: T5, Urotensin-2 receptor (Macaca mulatta, UniProt Q8HYC3); assay: Binding affinity to monkey urotensin 2 receptor
T5 sequence (Q8HYC3 whole entry): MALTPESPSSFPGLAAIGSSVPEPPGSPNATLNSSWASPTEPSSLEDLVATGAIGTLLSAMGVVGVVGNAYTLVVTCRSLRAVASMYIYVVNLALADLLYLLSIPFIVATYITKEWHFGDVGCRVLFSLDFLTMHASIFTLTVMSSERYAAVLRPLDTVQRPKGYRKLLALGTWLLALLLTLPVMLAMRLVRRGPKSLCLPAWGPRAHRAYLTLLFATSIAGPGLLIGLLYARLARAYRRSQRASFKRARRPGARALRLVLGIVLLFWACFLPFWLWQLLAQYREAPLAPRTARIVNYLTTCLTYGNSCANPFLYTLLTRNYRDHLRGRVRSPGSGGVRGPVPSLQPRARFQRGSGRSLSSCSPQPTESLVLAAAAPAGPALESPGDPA

Urotensin-2 receptor [16] = target: T2, Urotensin-2 receptor; assay: Antagonist activity at rat urotensin 2 receptor expressed in CHO cells assessed as calcium mobilization by FLIPR; format: functional, cell-based
Urotensin-2 receptor [17] = target: T6, Urotensin-2 receptor (Mus musculus, UniProt Q8VIH9); assay: Binding affinity to mouse urotensin 2 receptor
T6 sequence (Q8VIH9 whole entry): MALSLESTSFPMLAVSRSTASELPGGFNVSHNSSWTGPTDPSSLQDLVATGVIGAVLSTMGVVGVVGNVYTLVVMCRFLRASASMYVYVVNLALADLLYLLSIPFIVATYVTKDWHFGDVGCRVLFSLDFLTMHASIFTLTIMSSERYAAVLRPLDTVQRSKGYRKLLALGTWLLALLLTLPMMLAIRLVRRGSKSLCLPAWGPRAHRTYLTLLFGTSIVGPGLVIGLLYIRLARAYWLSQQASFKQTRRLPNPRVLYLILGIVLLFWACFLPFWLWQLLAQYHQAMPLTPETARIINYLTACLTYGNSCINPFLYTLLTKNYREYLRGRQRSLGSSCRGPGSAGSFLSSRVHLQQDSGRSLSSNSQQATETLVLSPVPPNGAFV

Aorta [18] = assay: Vasorelaxation activity against urotensin-2-induced contraction in isolated rat aorta assessed as restoration of renal blood flow at 10 mg/kg/hr, iv; format: functional, organism-based
Urotensin-2 receptor [19] = target: T2, Urotensin-2 receptor; assay: Binding affinity to rat urotensin 2 receptor
Mus musculus = assay: Reduction in atherosclerotic lesion size in Apo-E knockout mouse at 30 mg/kg, po qd for 10 weeks; format: functional; design: scale not given: the % may be the effect or the level left

With `CCN1CCN(c2cccc3c2CN([C@@H](CCCNS(=O)(=O)c2cccs2)c2ccc(OC)c(OC)c2)C3=O)CC1` the inhibition [1] was 74%, the bioavailability [2] was 10% and the Activity (Rattus norvegicus [3]) was “Active”.
`CC(C)[C@H](NC(=O)c1cc2ccccc2s1)C(=O)N[C@H]1CCN(Cc2ccc(OCCCN(C)C)cc2)C1` gave a Ki (Urotensin-2 receptor [4]) of 600 nM and a Ki (Urotensin-2 receptor [5]) of 12 nM.
With `CN(C)CCCOc1ccc(CN2CC[C@H](NC(=O)c3ccc(Cl)c(Cl)c3)C2)cc1` the Ki (Urotensin-2 receptor [6]) was 250 nM and the Ki (Urotensin-2 receptor [7]) was 3.2 nM.
In the case of `CCN1CCN(c2cccc3c2[C@H]2CCC[C@H](c4ccc(OC)c(OC)c4)N2C3=O)CC1`, the bioavailability [2] is reported as 35%, the Ki (Urotensin-2 receptor [8]) is reported as 6.3 nM and the Ki (Urotensin-2 receptor [6]) is reported as 390 nM.
`COc1cc(Br)c(S(=O)(=O)Nc2ccc(C(F)(F)F)c(O[C@@H]3CCN(C)C3)c2)cc1OC` gave an inhibition [1] of 97%.
Compound `CC(=O)N[C@H]1CSSC[C@@H](C(N)=O)NC(=O)[C@H](C)NC(=O)[C@H](CCCCN)NC(=O)[C@H](Cc2c[nH]c3ccccc23)NC(=O)[C@H](Cc2ccccc2)NC1=O` (Ac-CFWKAC-NH2; disulfide 1-6) has an Activity (Aorta [9]) of 0%, an Activity [10] of 50% and a Ki (Urotensin-2 receptor [7]) greater than 10000 nM.
For `CC(=O)N[C@@H](Cc1ccccc1)C(=O)N[C@@H](Cc1c[nH]c2ccccc12)C(=O)N[C@@H](CCCCN)C(=O)N[C@@H](Cc1ccc(O)cc1)C(N)=O` (Ac-FWKY-NH2), the Activity [11] was 57%, the Activity [12] was “inactive” and the Ki (Urotensin-2 receptor [7]; cho) was less than 10000 nM.
For `CC(C)[C@H](NC(=O)[C@@H]1CSSC[C@H](NC(=O)[C@H](CC(N)=O)NC(=O)[C@H](C)N)C(=O)N[C@@H](Cc2ccccc2)C(=O)N[C@@H](C)C(=O)N[C@@H](CCCCN)C(=O)N[C@@H](Cc2ccc(O)cc2)C(=O)N1)C(=O)O` (H-ANCFAKYCV-OH; disulfide 3-8), the Activity [13] was “inactive”.
In the case of `CC(C)[C@H](NC(=O)[C@@H]1CSSC[C@H](NC(=O)[C@H](CC(N)=O)NC(=O)[C@H](C)N)C(=O)N[C@@H](Cc2ccccc2)C(=O)N[C@@H](Cc2c[nH]c3ccccc23)C(=O)N[C@@H](C)C(=O)N[C@@H](Cc2ccc(O)cc2)C(=O)N1)C(=O)O` (H-ANCFWAYCV-OH; disulfide 3-8), the Activity [13] is reported as “inactive”.
With `CC(C)[C@H](NC(=O)[C@@H]1CSSC[C@H](NC(=O)[C@H](CC(N)=O)NC(=O)[C@H](C)N)C(=O)N[C@@H](Cc2ccccc2)C(=O)N[C@@H](Cc2c[nH]c3ccccc23)C(=O)N[C@@H](CCCCN)C(=O)N[C@@H](C)C(=O)N1)C(=O)O` (H-ANCFWKACV-OH; disulfide 3-8) the Activity [10] was 67% and the Activity [13] was “inactive”.
`Cc1cc(NC(=O)NCCN2CCC(O)(Cc3ccccc3)CC2)c2ccccc2n1` [PALOSURAN SULFATE] gave a Ki (Urotensin II receptor) greater than 1000 nM, a concentration (Rattus norvegicus [14]) of 5 µM and a Ki (Urotensin-2 receptor [15]) of 4 nM. It also gave an IC50 (Urotensin-2 receptor [5]) of 3.6 nM, a Ki (Urotensin-2 receptor [5]) of 5 nM and a Ki (Urotensin-2 receptor [16]) greater than 1000 nM. The Ki (Urotensin-2 receptor [17]) was greater than 1000 nM and the Activity (Aorta [18]) was “Active”.
For `CN(C)CCOc1cc(NS(=O)(=O)c2c(Cl)cc(C(F)(F)F)cc2Cl)ccc1Cl` [SB611812], the bioavailability [2] was 100%, the Ki (Urotensin-2 receptor [19]) was 121 nM and the Activity (Mus musculus) was 64%.
For Ac-SFWKYS-NH2, the EC50 (Urotensin-2 receptor [8]) was less than 500 nM, the Activity [10] was 50% and the Activity [12] was “inactive”. The Ki (Urotensin-2 receptor [7]; cho) was less than 10000 nM.
